# Experimental data published in PubChem BioAssay AID2060513 (Molecular Pharmacology Branch, DTP, NCI, 2025).
# Test system: 299254-011-R-J1-PDC complex spheroids viability
# Assay: Anticancer human tumor 299254-011-R-J1-PDC patient-derived melanoma cell line growth inhibition [GQUAD]
# Conditions: for IC50: curve of first compound; for viability, T/C: stronger effect = lower value
# In short: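 Viability of tumor cells grown as complex spheroids with endothelial and stromal cells, exposed to drug combinations. Top concentration at or near clinical Cmax (else 10 microM), diluted in half-log increments.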
# [1] = second compound 0.0316 µM, first compound 0.0316 µM
# [2] = second compound 0.0316 µM, first compound 0.1 µM
# [3] = second compound 0.0316 µM, first compound 0.316 µM
# [4] = second compound 0.0316 µM, first compound 1 µM
# [5] = second compound 0.0316 µM, first compound 3.16 µM
# [6] = second compound 0.0316 µM, first compound 10 µM
# [7] = second compound 0.1 µM, first compound 0.0316 µM
# [8] = second compound 0.1 µM, first compound 0.1 µM
# [9] = second compound 0.1 µM, first compound 0.316 µM
# [10] = second compound 0.1 µM, first compound 1 µM
# [11] = second compound 0.1 µM, first compound 3.16 µM
# [12] = second compound 0.1 µM, first compound 10 µM
# [13] = second compound 0.316 µM, first compound 0.0316 µM
# [14] = second compound 0.316 µM, first compound 0.1 µM
# [15] = second compound 0.316 µM, first compound 0.316 µM
# [16] = second compound 0.316 µM, first compound 1 µM
# [17] = second compound 0.316 µM, first compound 3.16 µM
# [18] = second compound 0.316 µM, first compound 10 µM
# [19] = second compound 1 µM, first compound 0.0316 µM
# [20] = second compound 1 µM, first compound 0.1 µM
# [21] = second compound 1 µM, first compound 0.316 µM
# [22] = second compound 1 µM, first compound 1 µM
# [23] = second compound 1 µM, first compound 3.16 µM
# [24] = second compound 1 µM, first compound 10 µM
# [25] = second compound 3.16 µM, first compound 0.0316 µM
# [26] = second compound 3.16 µM, first compound 0.1 µM
# [27] = second compound 3.16 µM, first compound 0.316 µM
# [28] = second compound 3.16 µM, first compound 1 µM
# [29] = second compound 3.16 µM, first compound 3.16 µM
# [30] = second compound 3.16 µM, first compound 10 µM
# [31] = second compound 10 µM, first compound 0.0316 µM
# [32] = second compound 10 µM, first compound 0.1 µM
# [33] = second compound 10 µM, first compound 0.316 µM
# [34] = second compound 10 µM, first compound 1 µM
# [35] = second compound 10 µM, first compound 3.16 µM
# [36] = second compound 10 µM, first compound 10 µM
# [37] = second compound 0.0316 µM, first compound 0.000999 µM
# [38] = second compound 0.0316 µM, first compound 0.00316 µM
# [39] = second compound 0.0316 µM, first compound 0.00999 µM
# [40] = second compound 0.0316 µM, first compound 0.0999 µM
# [41] = second compound 0.1 µM, first compound 0.000999 µM
# [42] = second compound 0.1 µM, first compound 0.00316 µM
# [43] = second compound 0.1 µM, first compound 0.00999 µM
# [44] = second compound 0.1 µM, first compound 0.0999 µM
# [45] = second compound 0.316 µM, first compound 0.000999 µM
# [46] = second compound 0.316 µM, first compound 0.00316 µM
# [47] = second compound 0.316 µM, first compound 0.00999 µM
# [48] = second compound 0.316 µM, first compound 0.0999 µM
# [49] = second compound 1 µM, first compound 0.000999 µM
# [50] = second compound 1 µM, first compound 0.00316 µM
# [51] = second compound 1 µM, first compound 0.00999 µM
# [52] = second compound 1 µM, first compound 0.0999 µM
# [53] = second compound 3.16 µM, first compound 0.000999 µM
# [54] = second compound 3.16 µM, first compound 0.00316 µM
# [55] = second compound 3.16 µM, first compound 0.00999 µM
# [56] = second compound 3.16 µM, first compound 0.0999 µM
# [57] = second compound 10 µM, first compound 0.000999 µM
# [58] = second compound 10 µM, first compound 0.00316 µM
# [59] = second compound 10 µM, first compound 0.00999 µM
# [60] = second compound 10 µM, first compound 0.0999 µM
# 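Note: spheroids exposed to the agents for seven days before readout.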
# 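Throughout, for viability, T/C: percent viability relative to DMSO vehicle control wells = 100%.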
structure (smiles),measurement,setting,value
C=CC(=O)N1CCN(c2nc(=O)n(-c3c(C)ccnc3C(C)C)c3nc(-c4c(O)cccc4F)c(F)cc23)C(C)C1 (stereo not drawn) + CN(C)c1ccc(Nc2c3ccc(NC(=O)CCN4CCCC4)cc3nc3cc(NC(=O)CCN4CCCC4)ccc23)cc1,IC50,second compound 0.0316 µM,> 10 µM
same,IC50,second compound 0.1 µM,> 10 µM
same,IC50,second compound 0.316 µM,> 10 µM
same,IC50,second compound 1 µM,> 10 µM
same,IC50,second compound 3.16 µM,> 10 µM
same,IC50,second compound 10 µM,> 10 µM
same,"viability, T/C",[1],93.8%
same,"viability, T/C",[2],68.9%
same,"viability, T/C",[3],73.1%
same,"viability, T/C",[4],56.3%
same,"viability, T/C",[5],64.4%
same,"viability, T/C",[6],66.6%
same,"viability, T/C",[7],79.4%
same,"viability, T/C",[8],80.2%
same,"viability, T/C",[9],57%
same,"viability, T/C",[10],60.4%
same,"viability, T/C",[11],74.7%
same,"viability, T/C",[12],74.3%
same,"viability, T/C",[13],76.2%
same,"viability, T/C",[14],81.3%
same,"viability, T/C",[15],62.3%
same,"viability, T/C",[16],68.2%
same,"viability, T/C",[17],67.3%
same,"viability, T/C",[18],65.4%
same,"viability, T/C",[19],81.1%
same,"viability, T/C",[20],74%
same,"viability, T/C",[21],71.8%
same,"viability, T/C",[22],67.4%
same,"viability, T/C",[23],80%
same,"viability, T/C",[24],65%
same,"viability, T/C",[25],71.2%
same,"viability, T/C",[26],83.3%
same,"viability, T/C",[27],75.8%
same,"viability, T/C",[28],60.4%
same,"viability, T/C",[29],73%
same,"viability, T/C",[30],79.1%
same,"viability, T/C",[31],74.4%
same,"viability, T/C",[32],74.8%
same,"viability, T/C",[33],74.7%
same,"viability, T/C",[34],68.2%
same,"viability, T/C",[35],69.7%
same,"viability, T/C",[36],76.8%
CC[C@@]1(O)C(=O)OCc2c1cc1n(c2=O)Cc2cc3c(CN(C)C)c(O)ccc3nc2-1 + CN(C)c1ccc(Nc2c3ccc(NC(=O)CCN4CCCC4)cc3nc3cc(NC(=O)CCN4CCCC4)ccc23)cc1,IC50,second compound 0.0316 µM,> 0.316 µM
same,IC50,second compound 0.1 µM,> 0.316 µM
same,IC50,second compound 0.316 µM,> 0.316 µM
same,IC50,second compound 1 µM,> 0.316 µM
same,IC50,second compound 3.16 µM,> 0.316 µM
same,IC50,second compound 10 µM,> 0.316 µM
same,"viability, T/C",[37],99.2%
same,"viability, T/C",[38],105%
same,"viability, T/C",[39],126%
same,"viability, T/C",[1],107%
same,"viability, T/C",[40],112%
same,"viability, T/C",[3],90.4%
same,"viability, T/C",[41],120%
same,"viability, T/C",[42],93.2%
same,"viability, T/C",[43],98.7%
same,"viability, T/C",[7],101%
same,"viability, T/C",[44],84.5%
same,"viability, T/C",[9],90.1%
same,"viability, T/C",[45],108%
same,"viability, T/C",[46],120%
same,"viability, T/C",[47],108%
same,"viability, T/C",[13],90.1%
same,"viability, T/C",[48],85.8%
same,"viability, T/C",[15],101%
same,"viability, T/C",[49],106%
same,"viability, T/C",[50],105%
same,"viability, T/C",[51],115%
same,"viability, T/C",[19],114%
same,"viability, T/C",[52],97.6%
same,"viability, T/C",[21],81.8%
same,"viability, T/C",[53],103%
same,"viability, T/C",[54],97%
same,"viability, T/C",[55],122%
same,"viability, T/C",[25],125%
same,"viability, T/C",[56],124%
same,"viability, T/C",[27],95.9%
same,"viability, T/C",[57],112%
same,"viability, T/C",[58],89.3%
same,"viability, T/C",[59],110%
same,"viability, T/C",[31],97.1%
same,"viability, T/C",[60],91.6%
same,"viability, T/C",[33],90.1%
Cc1cccc(N(C)C(=O)C2C(O)CCN2c2nc(C)cc(C(F)(F)F)c2C#N)c1 (stereo not drawn) + CN(C)c1ccc(Nc2c3ccc(NC(=O)CCN4CCCC4)cc3nc3cc(NC(=O)CCN4CCCC4)ccc23)cc1,IC50,second compound 0.0316 µM,> 10 µM
same,IC50,second compound 0.1 µM,> 10 µM
same,IC50,second compound 0.316 µM,> 10 µM
same,IC50,second compound 1 µM,> 10 µM
same,IC50,second compound 3.16 µM,> 10 µM
same,IC50,second compound 10 µM,> 10 µM
same,"viability, T/C",[1],118%
same,"viability, T/C",[2],96.8%
same,"viability, T/C",[3],84.9%
same,"viability, T/C",[4],80.5%
same,"viability, T/C",[5],99.2%
same,"viability, T/C",[6],86%
same,"viability, T/C",[7],116%
same,"viability, T/C",[8],84.9%
same,"viability, T/C",[9],89.2%
same,"viability, T/C",[10],83.4%
same,"viability, T/C",[11],90.4%
same,"viability, T/C",[12],81.5%
same,"viability, T/C",[13],103%
same,"viability, T/C",[14],100%
same,"viability, T/C",[15],90.5%
same,"viability, T/C",[16],103%
same,"viability, T/C",[17],95.6%
same,"viability, T/C",[18],103%
same,"viability, T/C",[19],94.9%
same,"viability, T/C",[20],105%
same,"viability, T/C",[21],99.5%
same,"viability, T/C",[22],100%
same,"viability, T/C",[23],105%
same,"viability, T/C",[24],81.3%
same,"viability, T/C",[25],108%
same,"viability, T/C",[26],99.6%
same,"viability, T/C",[27],98.6%
same,"viability, T/C",[28],108%
same,"viability, T/C",[29],84.1%
same,"viability, T/C",[30],80.4%
same,"viability, T/C",[31],102%
same,"viability, T/C",[32],79.4%
same,"viability, T/C",[33],98.7%
same,"viability, T/C",[34],110%
same,"viability, T/C",[35],77.4%
same,"viability, T/C",[36],67.6%
Cn1ncnc1[C@H]1c2n[nH]c(=O)c3cc(F)cc(c23)N[C@@H]1c1ccc(F)cc1 + CN(C)c1ccc(Nc2c3ccc(NC(=O)CCN4CCCC4)cc3nc3cc(NC(=O)CCN4CCCC4)ccc23)cc1,IC50,second compound 0.0316 µM,> 0.316 µM
same,IC50,second compound 0.1 µM,> 0.316 µM
same,IC50,second compound 0.316 µM,> 0.316 µM
same,IC50,second compound 1 µM,> 0.316 µM
same,IC50,second compound 3.16 µM,> 0.316 µM
same,IC50,second compound 10 µM,> 0.316 µM
same,"viability, T/C",[37],108%
same,"viability, T/C",[38],101%
same,"viability, T/C",[39],100%
same,"viability, T/C",[1],101%
same,"viability, T/C",[40],105%
same,"viability, T/C",[3],83.8%
same,"viability, T/C",[41],90.5%
same,"viability, T/C",[42],109%
same,"viability, T/C",[43],107%
same,"viability, T/C",[7],102%
same,"viability, T/C",[44],86.9%
same,"viability, T/C",[9],87.5%
same,"viability, T/C",[45],110%
same,"viability, T/C",[46],90.3%
same,"viability, T/C",[47],100%
same,"viability, T/C",[13],106%
same,"viability, T/C",[48],93.1%
same,"viability, T/C",[15],97.8%
same,"viability, T/C",[49],121%
same,"viability, T/C",[50],84.5%
same,"viability, T/C",[51],98.4%
same,"viability, T/C",[19],92.8%
same,"viability, T/C",[52],98.6%
same,"viability, T/C",[21],92.6%
same,"viability, T/C",[53],110%
same,"viability, T/C",[54],98.2%
same,"viability, T/C",[55],101%
same,"viability, T/C",[25],105%
same,"viability, T/C",[56],112%
same,"viability, T/C",[27],100%
same,"viability, T/C",[57],87%
same,"viability, T/C",[58],85.2%
same,"viability, T/C",[59],89.8%
same,"viability, T/C",[31],101%
same,"viability, T/C",[60],93.9%
same,"viability, T/C",[33],109%
